Experimental findings from article PMC9599613 (Biomolecules, 2022) are described below.

Experiment [1] is described as follows: DPPH free radical scavenging assay. As for the experimental part: The antioxidant potentials of isolated compounds (phytosteroids 1 and 2) were determined following the DPPH standard assay. Initially, DPPH (24 mg) was dissolved in methanol (100 mL). Stock solutions of the test compounds were prepared in different dilutions (62.50–1000 μg/mL). From each dilution, 1 mL was mixed with 1 mL of the DPPH solution. The solution mixtures were incubated at room temperature for 0.5 h. Afterward, absorbance was recorded at 517 nm with a UV-visible spectrophotometer. Ascorbic acid was the standard drug, whereas the DPPH solution without the compound was negative control. The percent radical scavenging potential of the test compounds was calculated using the following formula: % DPPH activity=X−X1/X×100 where X = absorbance of the control, and X1 = absorbance of the test compound.

The nature of experiment [2]: ABTS free radical scavenging assay. How it is done: The antioxidant potentials of isolated phytosteroids 1 and 2 were also determined using the ABTS (2,2′-azino-bis(3-ethylbenzothiazoline-6-sulfonic acid)) standard method. […] This created free radicals within the sample. Afterward, the addition of 50% methanol and the ABTS radical cation solution were adjusted to pH 7.4 by dilution with the phosphate buffer (pH 7.4). […] The positive control was ascorbic acid, and the assay was repeated in triplicate. The percent radical scavenging potential of the test compounds was calculated using the standard reported formula.

The target in the next experiment is COX-1 (Homo sapiens, UniProt P23219). In words: biochemical. To be noted: read-out: % COX-1 Inhibition. As for the experimental part:
(§1) The Cyclooxygenase enzymes (COX-1 and 2) inhibitory potential of our test compounds was determined according to the previously reported procedure. […] The enzyme solutions with a concentration of 0.7–0.8 μg/10 μL (COX-1) and 300 U/mL (COX-2) were prepared. To start the assay, for enzyme activation, 10 µL enzyme solution (kept in a cool temperature of 4 °C for 5 min) and cofactor containing hematin (50 µL, 1 mM), glutathione (0.9 mM) and TMPD in a Tris-buffer (0.1 M) with a pH 8.0 was added. After that, 60 µL of the enzyme solution was added to 20 µL of the test samples of various concentrations and incubated at room temperature for 5 to 10 min. Then, 20 µL of arachidonic acid (30 mM) was added to start the reaction. The mixture was then again incubated for 15 min at 37 °C, and absorbances were measured at 570 nm with UV-visible spectrophotometer. […] The % enzyme inhibitions were calculated by using the previously reported formula.

Experiment [3] deals with T1, butyrylcholinesterase (BChE) (Equus caballus, UniProt P81908).
T1 construct: butyrylcholinesterase (BChE, obtained from equine serum); from tissue; host or cells: equine serum
T1 sequence (P81908 whole entry): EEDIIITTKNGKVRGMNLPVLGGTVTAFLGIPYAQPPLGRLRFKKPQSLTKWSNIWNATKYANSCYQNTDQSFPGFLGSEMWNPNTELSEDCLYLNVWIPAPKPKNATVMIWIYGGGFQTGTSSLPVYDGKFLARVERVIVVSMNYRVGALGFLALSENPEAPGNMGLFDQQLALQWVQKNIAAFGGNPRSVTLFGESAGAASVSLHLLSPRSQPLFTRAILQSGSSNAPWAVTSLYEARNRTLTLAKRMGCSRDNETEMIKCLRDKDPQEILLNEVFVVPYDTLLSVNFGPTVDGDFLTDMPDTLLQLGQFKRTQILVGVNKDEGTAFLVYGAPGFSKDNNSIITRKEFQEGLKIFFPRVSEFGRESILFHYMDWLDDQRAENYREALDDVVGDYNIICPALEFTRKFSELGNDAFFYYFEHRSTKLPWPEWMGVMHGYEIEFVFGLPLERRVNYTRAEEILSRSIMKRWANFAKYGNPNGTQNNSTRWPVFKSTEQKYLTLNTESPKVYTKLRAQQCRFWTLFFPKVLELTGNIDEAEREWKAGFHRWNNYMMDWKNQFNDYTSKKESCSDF
In words: Anticholinesterase assay (Ellman's), BChE inhibition. The format is biochemical, equine. How it is done:
(§2) This enzyme method relied on the hydrolytic of acetyl cholinethioiodide (ATChI) by acetylcholinesterase and butyrylthiocholine iodide (BTchI) by butyrylcholinesterase. As a result of this breakdown, 5-thio-2-nitrobenoate anions formed. […] The absorption was measured with a spectrophotometer, as per the protocols. […] An amount of 0.1 M phosphate buffer (8.0 ± 0.1 pH) solution was prepared, whose final pH was adjusted by using the KOH solution.
(§3) In this assay, 50 µL enzyme solution and 50 µL DTNB reagent were added to 1 mL test samples in a cuvette and then incubated at 30 °C for 15 min. Afterward, a 50 µL substrate solution was added to the mixture.

The next experiment deals with T2, human recombinant 5-LOX (Homo sapiens, UniProt P09917).
T2 sequence (P09917 1-674): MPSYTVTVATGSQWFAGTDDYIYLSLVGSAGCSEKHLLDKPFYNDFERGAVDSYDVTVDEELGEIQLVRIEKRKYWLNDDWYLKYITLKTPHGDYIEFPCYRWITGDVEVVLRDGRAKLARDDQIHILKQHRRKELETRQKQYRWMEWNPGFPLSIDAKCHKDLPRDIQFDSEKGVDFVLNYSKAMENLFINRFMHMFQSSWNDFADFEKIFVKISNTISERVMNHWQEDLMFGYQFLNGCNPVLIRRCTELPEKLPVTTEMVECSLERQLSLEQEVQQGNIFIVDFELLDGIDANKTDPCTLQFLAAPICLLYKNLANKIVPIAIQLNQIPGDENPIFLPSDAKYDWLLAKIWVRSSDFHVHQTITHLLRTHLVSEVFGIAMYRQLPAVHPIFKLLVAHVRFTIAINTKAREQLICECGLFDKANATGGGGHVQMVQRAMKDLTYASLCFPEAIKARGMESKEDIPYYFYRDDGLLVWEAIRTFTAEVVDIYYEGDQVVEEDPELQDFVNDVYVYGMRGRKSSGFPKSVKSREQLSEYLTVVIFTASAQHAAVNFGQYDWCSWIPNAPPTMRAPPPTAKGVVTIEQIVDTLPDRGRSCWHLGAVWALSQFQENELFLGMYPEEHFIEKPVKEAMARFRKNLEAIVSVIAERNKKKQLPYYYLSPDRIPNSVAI
The experiment is described as follows: biochemical. To be noted: for inhibition at 62.5 µg/mL / inhibition at 125 µg/mL / inhibition at 250 µg/mL / inhibition at 500 µg/mL / inhibition at 1000 µg/mL: read-out: % 5-LOX Inhibition. As for the experimental part: The lipoxygenase assay on our test compounds was performed by utilizing human recombinant 5-LOX [65]. […] The enzyme solution with a concentration of 10,000 U/mL was prepared, whereas 80 mM linoleic acid solution was used as a substrate. Solutions were prepared in a phosphate buffer (50 mM) with a pH of 6.3, which was also utilized as the blank. To start, various concentrations of our test samples were dissolved in 0.25 mL of the buffer, to which 0.25 mL enzyme solution was added and incubated at 25 °C for 5 min. Afterward, the substrate solution (0.1 mL) was added to the mixture and shaken well. […] In this assay, the standard drug was montelukast, and using the following formula, the % inhibitions were calculated: % enzyme inhibition=X−X1/X×100 where X = absorbance of the negative control (with no test sample), and X1 = absorbance of the test compound.

Experiment [4] concerns the target T3, acetylcholinesterase (AChE) (Electrophorus electricus, UniProt O42275).
T3 construct: acetylcholinesterase (AChE, obtained from Electrophorus electricus); from tissue
The experiment is described as follows: Anticholinesterase assay (Ellman's), AChE inhibition. The format is biochemical. As for the experimental part:
as §2, §3

A further experiment deals with T4, COX-2 (Homo sapiens, UniProt P35354).
T4 sequence (P35354 18-604): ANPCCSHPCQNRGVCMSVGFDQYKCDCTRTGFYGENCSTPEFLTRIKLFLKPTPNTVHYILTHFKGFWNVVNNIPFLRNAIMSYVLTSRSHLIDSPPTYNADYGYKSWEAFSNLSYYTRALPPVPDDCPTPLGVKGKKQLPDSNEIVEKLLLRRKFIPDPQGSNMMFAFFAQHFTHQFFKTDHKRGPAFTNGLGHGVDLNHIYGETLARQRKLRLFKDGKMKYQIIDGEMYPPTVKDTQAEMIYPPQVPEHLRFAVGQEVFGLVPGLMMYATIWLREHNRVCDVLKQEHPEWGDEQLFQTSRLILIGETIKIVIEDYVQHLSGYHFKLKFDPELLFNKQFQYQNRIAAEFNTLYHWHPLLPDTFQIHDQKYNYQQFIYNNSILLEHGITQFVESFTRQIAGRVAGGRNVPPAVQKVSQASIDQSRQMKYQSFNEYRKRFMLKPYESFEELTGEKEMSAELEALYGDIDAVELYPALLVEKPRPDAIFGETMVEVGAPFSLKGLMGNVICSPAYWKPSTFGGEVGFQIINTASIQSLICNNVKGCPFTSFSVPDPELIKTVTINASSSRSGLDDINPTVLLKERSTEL
The experiment is described as follows: biochemical. How it is done:
as §1

[5] abbreviates: 1000 μg/mL, listed as compound 1.

The term inhibition denotes how much of the control response was suppressed. One may read the IC50 as the midpoint of a concentration-inhibition curve.

Like-named read-outs stand apart in the source and are kept apart here.

Sequence of COX-1 (P23219 24-599): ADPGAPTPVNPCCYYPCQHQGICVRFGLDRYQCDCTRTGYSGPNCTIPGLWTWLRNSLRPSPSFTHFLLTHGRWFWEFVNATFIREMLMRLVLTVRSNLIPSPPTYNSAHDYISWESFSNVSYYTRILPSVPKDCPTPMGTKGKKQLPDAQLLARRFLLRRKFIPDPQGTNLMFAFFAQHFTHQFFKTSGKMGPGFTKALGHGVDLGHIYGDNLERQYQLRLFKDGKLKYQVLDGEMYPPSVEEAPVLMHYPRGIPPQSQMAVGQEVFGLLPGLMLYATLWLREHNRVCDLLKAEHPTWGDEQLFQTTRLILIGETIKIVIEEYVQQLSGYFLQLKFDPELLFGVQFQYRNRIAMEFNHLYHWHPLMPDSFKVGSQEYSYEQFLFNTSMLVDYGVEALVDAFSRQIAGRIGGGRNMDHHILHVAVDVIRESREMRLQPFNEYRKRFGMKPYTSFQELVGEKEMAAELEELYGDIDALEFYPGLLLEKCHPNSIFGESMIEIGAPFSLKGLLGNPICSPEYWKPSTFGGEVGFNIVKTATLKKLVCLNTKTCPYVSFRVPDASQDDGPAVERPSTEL
T3 sequence (O42275 24-633): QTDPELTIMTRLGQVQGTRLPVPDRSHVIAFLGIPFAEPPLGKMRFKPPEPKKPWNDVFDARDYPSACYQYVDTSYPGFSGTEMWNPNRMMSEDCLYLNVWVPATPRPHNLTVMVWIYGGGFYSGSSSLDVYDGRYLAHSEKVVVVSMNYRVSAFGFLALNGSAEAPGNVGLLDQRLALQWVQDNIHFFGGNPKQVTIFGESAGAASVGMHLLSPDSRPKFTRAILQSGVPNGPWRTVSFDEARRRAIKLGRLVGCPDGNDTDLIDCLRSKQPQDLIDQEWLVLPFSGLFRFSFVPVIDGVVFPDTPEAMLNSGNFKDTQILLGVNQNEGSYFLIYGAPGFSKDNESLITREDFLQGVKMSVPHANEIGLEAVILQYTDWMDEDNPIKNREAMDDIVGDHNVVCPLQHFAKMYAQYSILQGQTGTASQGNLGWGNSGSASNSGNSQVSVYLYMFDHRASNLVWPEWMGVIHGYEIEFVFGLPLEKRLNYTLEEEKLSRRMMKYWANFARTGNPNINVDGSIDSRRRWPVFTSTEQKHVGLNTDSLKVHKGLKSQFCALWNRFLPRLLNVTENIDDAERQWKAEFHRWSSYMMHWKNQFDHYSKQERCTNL

`O=C1O[C@H]([C@@H](O)CO)C(O)=C1O` [AA, Ascorbic acid, reference compound]: the “DPPH IC50” value in experiment [1] came out at 11.47 µg/mL. The “Percent DPPH Activity (mean ± SEM)” value was determined as 61.30 ± 0.52% in experiment [1] (62.5 μg/mL); 66.37 ± 0.58% in experiment [1] (125 μg/mL); 72.29 ± 0.43% in experiment [1] (250 μg/mL); 78.58 ± 0.56% in experiment [1] (500 μg/mL); 84.39 ± 0.60% in experiment [1] (1000 μg/mL). Also, in experiment [2], the “ABTS IC50” value amounted to 21.72 µg/mL. For the same molecule, the “Percent ABTS Activity (mean ± SEM)” value in experiment [2] (62.5 μg/mL) is recorded as 53.00 ± 0.57%; in experiment [2] (125 μg/mL) it was 62.50 ± 0.44%; in experiment [2] (250 μg/mL), 66.33 ± 0.33%; in experiment [2] (500 μg/mL), 74.66 ± 1.20%; in experiment [2] (1000 μg/mL) it was 79.00 ± 0.16%.
As for `CC(=O)Oc1ccccc1C(=O)O` [Aspirin, aspirin, reference compound], the inhibition at 62.5 µg/mL at COX-1 (62.50 μg/mL) is 51.68 ± 0.22%. The inhibition at 125 µg/mL on COX-1 (125 μg/mL) was determined as 59.84 ± 0.32%. In addition, the inhibition at 250 µg/mL at COX-1 (250 μg/mL) was determined as 66.43 ± 0.29%. For the same molecule, on COX-1 (500 μg/mL), the inhibition at 500 µg/mL worked out at 71.88 ± 0.2%. Further, the inhibition at 1000 µg/mL on COX-1 (1000 μg/mL) came to 75.89 ± 0.2%.
On to `CC(C)C/C=C\C(C)C1CCC2C3CCC4=CC(=O)CCC4(C)C3CCC12C` (stereo not drawn) [Compound 1, (Z)-10,13-dimethyl-17-(6-methylhept-3-en-2-yl)-1,2,6,7,8,9,10,11,12,13,14,15,16,17-tetradecahydro-3H-cyclopenta[a]phenanthren-3-one], for which the “DPPH IC50” value in experiment [1] was determined as 314.78 µg/mL. The “Percent DPPH Activity (mean ± SEM)” value in experiment [1] (62.5 μg/mL) amounted to 31.53 ± 0.71 %; in experiment [1] (125 μg/mL), 37.51 ± 0.77 %; in experiment [1] (250 μg/mL), 45.75 ± 0.58 %; in experiment [1] (500 μg/mL), 56.45 ± 0.49 %; in experiment [1] (1000 μg/mL), 64.79 ± 0.62 %; in experiment [1] (setting [5]), 64.79 ± 0.62%. Besides, the IC50 in experiment [3] is 71.5 µM; on human recombinant 5-LOX it was 19.3 µM; in experiment [4] (read-out: AChE IC50 (converted)), 53 µM; against COX-2, 28 µM. Further, the “Percent BChE (mean ± SEM)” value in experiment [3] (62.5 μg/mL) worked out at 59.81 ± 0.65 %; in experiment [3] (125 μg/mL), 66.65 ± 0.78 %; in experiment [3] (250 μg/mL) it was 75.70 ± 0.62 %; in experiment [3] (500 μg/mL) it was 80.76 ± 0.63 %; in experiment [3] (1000 μg/mL) it was 84.83 ± 0.62 %. In addition, the inhibition at 62.5 µg/mL was 65.68 ± 0.64% at human recombinant 5-LOX, 61.1 ± 0.7% at COX-2 (read-out: % COX-2 Inhibition) and 22.4 ± 0.49% on COX-1. The values for the inhibition at 125 µg/mL at human recombinant 5-LOX, on COX-2 (read-out: % COX-2 Inhibition) and on COX-1 were 71.42 ± 0.46%, 66.4 ± 0.7% and 40.6 ± 0.84%, respectively. Besides, the inhibition at 250 µg/mL on human recombinant 5-LOX was 76.53 ± 0.41%; at COX-2 (read-out: % COX-2 Inhibition), 72.7 ± 0.51%; on COX-1, 43.5 ± 0.46%. Moreover, the inhibition at 500 µg/mL on human recombinant 5-LOX worked out at 82.45 ± 0.55%; on COX-2 (read-out: % COX-2 Inhibition), 78.83 ± 0.73%; on COX-1, 59.56 ± 0.45%. Besides, the inhibition at 1000 µg/mL at human recombinant 5-LOX amounted to 87.63 ± 0.64%; on COX-2 (read-out: % COX-2 Inhibition), 83.13 ± 0.8%; at COX-1, 66.29 ± 0.43%. In addition, the “AChE inhibition (%)” value is on record as 55.56 ± 0.52 % in experiment [4] (62.5 μg/mL); 64.78 ± 0.60 % in experiment [4] (125 μg/mL); 71.46 ± 0.53 % in experiment [4] (250 μg/mL); 77.68 ± 0.63 % in experiment [4] (500 μg/mL); 85.72 ± 0.79 ^ns % in experiment [4] (1000 μg/mL). Moreover, in experiment [2], the “ABTS IC50” value stood at 369.86 µg/mL. Further, the “Percent ABTS Activity (mean ± SEM)” value was found to be 29.67 ± 0.61 % in experiment [2] (62.5 μg/mL); 35.69 ± 0.77 % in experiment [2] (125 μg/mL); 43.83 ± 0.56 % in experiment [2] (250 μg/mL); 54.60 ± 0.80 % in experiment [2] (500 μg/mL); 62.61 ± 0.77 % in experiment [2] (1000 μg/mL); 62.61 ± 0.77% in experiment [2] (setting [5]).
On to `CC(C)(O)c1ccccc1CC[C@@H](SCC1(CC(=O)O)CC1)c1cccc(/C=C/c2ccc3ccc(Cl)cc3n2)c1` [Montelukast, montelukast, reference compound], for which the IC50 at human recombinant 5-LOX is 7.68 µM. Further, the inhibition at 62.5 µg/mL on human recombinant 5-LOX (62.50 μg/mL) was determined as 74.17 ± 0.72%. The inhibition at 125 µg/mL at human recombinant 5-LOX (125 μg/mL) was 79.6 ± 0.9%. For the same molecule, on human recombinant 5-LOX (250 μg/mL), the inhibition at 250 µg/mL was 85.5 ± 0.4%. Further, the inhibition at 500 µg/mL on human recombinant 5-LOX (500 μg/mL) was 89.4 ± 1.65%. The inhibition at 1000 µg/mL at human recombinant 5-LOX (1000 μg/mL) amounted to 93.55 ± 0.4%.
